In experiment [1] the test system is BxPC3 cells. The experiment in a line: Immunofluorescence of DNA damage foci (phospho-γH2AX, Rad51, 53BP1) after gemcitabine. The experiment is classed as cell-based, human. The settings on record: BxPC3 VDRkd, TSA (500 nM) treatment, 4 hrs in gemcitabine (50 nM). Here is the method:
For Immunofluorescence, cells were plated onto coverslips 24 hours pre-gemcitabine treatment. At different timepoints post gemcitabine treatment, cells were permeablized, fixed (4% paraformaldehyde) and stained. Antibodies to γH2AX (Millipore; 05-636), Rad51 (a gift), and 53BP1 were used. Alexa Fluor-conjugated (488, 555, and 647 nm) secondary antibodies (Molecular probes; A-11029, A-21428, A-21247) were used at a final concentration of 1 and nuclei counterstained with DAPI. Images were captured using a 40× or 63× high NA objective mounted on a semi-automated inverted microscope (Nikon TEi) with a charge-coupled device camera (Photometrics1394) using Nikon Elements 2.0. Exposure times for antibodies were optimized for control samples and identical exposure times used for the experimental samples. Images were quantitated and analyzed using Nikon Elements 2.0. Confocal images were taken using a Leica TCS-SP8 microscope controlled by LAS software (Leica Microsystems).
It was investigated if these repair pathways were abrogated after VDR knockdown by staining for foci formation by phospho-γH2AX, Rad51, and 53BP1, and measuring intensities after gemcitabine treatment (FIGS. 3, 4, and 5). BxPC3 (high VDR expression) and Panc1 (low VDR expression) cells were treated with gemcitabine (50 nM) for 2, 4, 8, and 18 hours, and fixed and stained for phospho-γH2AX, 53BP1, and Rad51. Foci quantitation included counting of nuclei with >5 foci and a separate measurement of the sum intensities of foci that were averaged for 5 separate immunofluorescence experiments. […] Weak but detectable phospho-γH2AX foci were visible within 4 hours of gemcitabine treatment in BxPC3 cells while it took 18 hours for foci to form in Panc1 cells (FIG. 3, A). Similarly, Rad51 foci were visible after 8 hours of gemcitabine treatment in BxPC3 cells compared to 18 hours in Panc1 cells (FIG. 3, A, FIG. 4, and FIG. 5).

Experiment [2] concerns BxPC3 cells. As to the kind of experiment: Rucaparib clonogenic assay. It counts as cell-based. The settings on record: Homo sapiens. Here is the method:
(§1) Cell viability assays. For clonogenic assays, 1000 cells per well were seeded into 6 well plates on day 0. Cells were treated with gemcitabine at various doses on day 1 for 24 hours, Gemcitabine was washed out on day 2, and cells were allowed to grow for a subsequent 10 days before being fixed (10% methanol+10% acetic acid) and stained with crystal violet (0.4% in 20% ethanol) for colony counting and quantitation. For Rucaparib clonogenic assays, the drug was added at various doses 24 hours after cell plating, and cells were allowed to grow for a subsequent 10 days in the presence of Rucaparib. For TSA clonogenic assays, the drug was added for 4 hours prior to addition of gemcitabine or vehicle for another 18 hours before drugs were washed away, and cells were allowed to grow in drug-free medium for 10 days.
(§2) BxPC3 and Panc1 cells were transfected with control, VDR, and BRCA1 siRNAs and their sensitivity to Rucaparib treatment was compared by clonogenic survival. […] For BXPC3 cells, the IC50s after knockdown of BRCA1 and VDR were 1 and 5 uM, respectively (FIG. 6, A) compared to the control IC50 of 9 μM.

Experiment [3] has as its system Panc1 cells. The experiment in a line: Rucaparib clonogenic assay. It counts as cell-based. The settings on record: Homo sapiens. The method, then: as §1, §2

Broadly, the IC50 is the point on the concentration scale where inhibition reaches its midpoint.

Take `CC(/C=C/C(=O)NO)=C\[C@@H](C)C(=O)c1ccc(N(C)C)cc1` [TSA, trichostatin A]: the “cells exhibiting Rad51 foci” value in experiment [1] was 89%.

For `CNCc1ccc(-c2[nH]c3cc(F)cc4c3c2CCNC4=O)cc1` [Rucaparib], the half-inhibitory concentration (IC50) amounted to 1000 nM in experiment [2] (BXPC-3, BXPC3, knockdown of BRCA1 (siRNA)); 5000 nM in experiment [2] (BXPC-3, BXPC3, knockdown of VDR (siRNA)); 9000 nM in experiment [2] (BXPC-3, BxPC3, control siRNA); 4000 nM in experiment [3] (PANC-1, Panc1, control siRNA); 3.5 nM in experiment [3] (PANC-1, Panc1, knockdown of BRCA1 (siRNA)); 400 nM in experiment [3] (PANC-1, Panc1, knockdown of VDR (siRNA)).

These data come from patent US10449200B2, “Combined inhibition of the vitamin D receptor and poly(ADP) ribose polymerase (PARP) in the treatment of cancer” (Institute for Cancer Research, priority 2014, dated 2019).
